Experimental findings from US20230212159A1, “Process for the Production of Ferroportin Inhibitors” (Vifor (International) AG, priority 2020, published 2023) are described below.

Assay [1] deals with T1, human Fpn-GFP fusion protein (Homo sapiens, UniProt Q9NP59).
T1 construct: expressed in transfected cells; host or cells: HEK-293 cell line #354 (derivative of HEK-293 Tet-ON Advanced)
T1 sequence (Q9NP59 1-571): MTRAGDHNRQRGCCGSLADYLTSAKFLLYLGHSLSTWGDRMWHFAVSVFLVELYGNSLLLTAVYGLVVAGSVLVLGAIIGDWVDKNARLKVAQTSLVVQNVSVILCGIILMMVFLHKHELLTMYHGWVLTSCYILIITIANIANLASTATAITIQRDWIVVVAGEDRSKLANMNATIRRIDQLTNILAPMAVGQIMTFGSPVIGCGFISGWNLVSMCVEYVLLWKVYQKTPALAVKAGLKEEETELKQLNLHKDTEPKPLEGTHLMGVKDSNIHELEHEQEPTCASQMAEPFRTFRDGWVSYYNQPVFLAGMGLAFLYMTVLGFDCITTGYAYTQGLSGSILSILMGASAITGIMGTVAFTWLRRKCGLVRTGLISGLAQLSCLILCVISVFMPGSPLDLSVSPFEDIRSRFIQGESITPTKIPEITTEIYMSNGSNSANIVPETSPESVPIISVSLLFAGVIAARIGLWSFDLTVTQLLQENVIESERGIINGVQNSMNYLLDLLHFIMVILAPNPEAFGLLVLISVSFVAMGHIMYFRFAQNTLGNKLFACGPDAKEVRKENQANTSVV
The assay is described as follows: Ferroportin internalization and degradation assay (FACS, HEK-293 cell line #354). Type of assay: cell-based. The method, then:
HEK-293 cell line #354 (described in 11.3) was used to measure the capacity of the compounds to induce internalization and degradation of ferroportin (Fpn) by fluorescence activated cell sorting (FACS). Growing HEK-293 #354 cells in doxycycline containing media induced expression of human Fpn-GFP fusion protein on the cell surface. […] Small molecular weight Fpn inhibitor compounds were tested for dose-dependent effects on the Fpn-GFP mean fluorescence intensity (MFI) on HEK-293 cell line #354, as described below.
HEK#354 cells were harvested from ca. 80% confluent cultures, seeded at 0.6x10^6 cells/ml in DMEM/F12 GlutaMAX™ medium (Invitrogen, Cat. 31331-028) containing 10% FBS (Clontech, Cat. 631106), 1% Penicillin-Streptomycin (Invitrogen, Cat. 15140-122), 200 µg/ml Hygromycin B (Invitrogen, Cat. 10687-010), Blasticidin 5 µg/ml, (Invitrogen, Cat. R210-01), 4 µg/ml doxycycline (Clontech, Cat. 631311), 50 µl per well of 384 well plates (Greiner; Cat. 781091) and grown at 37° C. with 5% CO2. After overnight incubation, 10 µl/well of dilution series of the test compounds were added in quadruplicates and plates were further incubated overnight at 37° C. with 5% CO2. Cells were washed once with FACS buffer (PBS containing 1% FBS, 2 mM EDTA and 0.05% NaN3), harvested in FACS buffer with 0.5 µg/ml propidium iodide (Sigma, Cat. P4864) and analyzed in a flow cytometer (CANTO^tm II, BD Biosciences) equipped with high throughput sampler. Live HEK#354 cells were gated as propidium iodide negative population and analyzed for expression of Fpn-GFP. MFI of Fpn-GFP of > 2000 live cells for each compound dilution was calculated using FlowJo (Tree Star’s, Oregon) and the potency of the Fpn-inhibitors to induce internalization and degradation of Fpn-GFP was calculated as described for the hepcidin internalization assay. EC50 data of the Compounds (II) and (II′) tested in the ferroportin internalization and degradation assay by FACS are listed in Table 4. The average EC50 value of hepcidin in this assay is 0.004 ± 0.002 µM.

A further assay deals with T2, ferroportin (Fpn) (Homo sapiens, UniProt Q9NP59).
T2 construct: expressed in transfected cells; host or cells: HEK-293 cell line #354 (derivative of HEK-293 Tet-ON Advanced)
T2 sequence (Q9NP59 1-571): T1 sequence (Q9NP59 1-571)
As to the kind of experiment: Inhibition of ferroportin mediated iron export activity in an iron response assay (BLA reporter, HEK-293 cell line #354). It counts as cell-based. Particulars: for IC50: HEK-293 cell line #354, BLA reporter, tested as 3HCl-salts, n=3, read-out: Iron response (HEK354 Blazer) IC50; for EC50: average of multiple measurements, iron response assay, 3HCl-salts, read-out: BLAzer EC50. The source says: Intracellular iron levels are indirectly measured in this assay by monitoring the activity of a beta-lactamase (BLA) reporter gene fused to the human ferritin promoter and the associated iron regulatory element (IRE) contained within the 5′ untranslated region of the ferritin mRNA. Expression of ferroportin (Fpn) in such a cell line leads to iron efflux and lower iron levels as reflected by lower activity of the reporter gene. On the other hand, inhibition of Fpn-mediated iron efflux results in elevated cellular iron levels which is detected as increased reporter gene activity. Small molecular weight Fpn inhibitor compounds were tested for dose-dependent effects in this in vitro iron response assay as described below.
The HEK-293 cell line #354 was generated by stable integration of (i) a human Fpn-GFP fusion construct inserted in a derivative of the doxycycline-inducible pTRE-Tight-BI plasmid (Clontech, Cat. 631068) and (ii) a human ferritin promoter-BLA reporter gene into a derivative of the HEK-293 Tet-ON Advanced cell line (Clontech). To generate the ferritin-BLA reporter gene construct, a 1.4 kb fragment of the human ferritin H promoter was amplified by PCR from human genomic DNA (forward primer 5′-[…]-3′; reverse primer 5′-GGCGGCGACTAAGGAGAGG-3′) and inserted in front of the BLA gene present in the pcDNA™6.2/cGeneBLAzer™-DEST plasmid (Invitrogen, Cat. 12578-043) thereby replacing the original CMV promoter and placing the IRE that regulates translation of the ferritin gene ca. 170 bp upstream of the start codon of the reporter gene. #354 cells were harvested from ca. 80% confluent cultures, seeded at 1.8x10^5 cells/ml in DMEM/F12 GlutaMAX™ medium (Invitrogen, Cat. 31331-028) containing 10% FBS (Clontech, Cat. 631106), 1% Penicillin-Streptomycin, 200 µg/ml Hygromycin B (Invitrogen, Cat. 10687-010), Blasticidin 5 µg/ml, (Invitrogen, Cat. R210-01), 4 µg/ml doxycycline (Clontech, Cat. 631311), 50 µl per well of 384 well PDL-coated plates and grown at 37° C. with 5% CO2. After overnight incubation, 10 µl/well of dilution series of the test compounds were added in quadruplicates and plates were further incubated overnight at 37° C. with 5% CO2. Cells were washed 3 times with HBSS leaving 25 µl per well. BLA activity was detected by adding 5 µl/well of the GeneBlazer reagent CCF4-AM (Invitrogen, Cat. K1085) to the cells. After incubation of the plates in the dark at 18° C. for 60 min., blue and green fluorescence signals were measured in a Safire2 fluorescence plate reader (Tecan) with excitation at 410 nm and emissions at 458 nm (blue) and 522 nm (green). The ratio of blue/green fluorescence as a measure for BLA activity was calculated and EC50 values were determined with the calculated blue/green fluorescence ratios as described for the hepcidin internalization assay.

Setting [2] is: HEK-293 cell line #354, FACS, tested as 3HCl-salts, n=2, read-out: Fpn internalization and degradation (HEK354 FACS) IC50.
[3] abbreviates: average of multiple measurements, HEK-293 #354 FACS, 3HCl-salts, read-out: EC50 (ferroportin internalization and degradation assay).

Read-outs that look alike come from different tables or passages of the source.

With `O=C(NCc1ncccc1Br)c1coc(CCNCCc2nc3ccccc3[nH]2)n1` [Compound (II′)], in assay [1] (setting [2]), the DC50 worked out at 0.161 µM. In assay [1] (setting [3]), the DC50 came out at 0.161 µM. Further, on ferroportin (Fpn), the IC50 came to 0.168 µM and the EC50 stood at 0.168 µM.
In the case of `CC[C@H](C)[C@@H]1NC(=O)[C@@H](NC(=O)[C@@H](NC(=O)[C@@H]2CCCN2C(=O)[C@H](Cc2ccccc2)NC(=O)[C@H](Cc2c[nH]cn2)NC(=O)[C@@H](NC(=O)[C@@H](N)CC(=O)O)[C@@H](C)O)[C@@H](C)CC)CSSC[C@@H](C(=O)N[C@@H](CCCCN)C(=O)N[C@H](C(=O)O)[C@@H](C)O)NC(=O)[C@@H]2CSSC[C@@H]3NC(=O)[C@@H]4CSSC[C@H](NC(=O)[C@H](Cc5ccccc5)NC1=O)C(=O)N[C@@H](CSSC[C@H](NC(=O)[C@H](CCCCN)NC(=O)[C@H](CO)NC(=O)[C@H](CCCNC(=N)N)NC(=O)[C@H](Cc1c[nH]cn1)NC3=O)C(=O)NCC(=O)N[C@@H](CCSC)C(=O)N2)C(=O)NCC(=O)N4` [hepcidin, reference compound], the DC50 in assay [1] (setting [2]) was determined as 0.006 µM. Also, the IC50 at ferroportin (Fpn) was determined as 0.039 µM.
Consider `O=C(NCc1ncccc1F)c1coc(CCNCCc2nc3ccccc3[nH]2)n1` [Compound (II)], for which the DC50 in assay [1] (setting [2]) worked out at 0.119 µM. Also, in assay [1] (setting [3]), the DC50 came to 0.119 µM. Moreover, at ferroportin (Fpn), the IC50 was 0.156 µM and the EC50 was 0.156 µM.

Usually IC50 stands for the concentration that gives 50% inhibition. One may read the EC50 as the concentration at which the effect is half-maximal.
